The target in this test is T1, HIV-integrase (Human immunodeficiency virus type 1 group M subtype B, UniProt P12497).
T1 construct: Recombinant integrase (0.26 ng) was incubated with the beads
The test can be described thus: HIV-Integrase Inhibition Activity (SPA bead integration assay with P33 labeled target DNA). The class given is biochemical. As to conditions: recombinant integrase, class symbols; read-out: in vitro activity. In short, it runs like this:
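Strand integration read as bead-proximity CPM after P33 target DNA (0.1 fmol) and inhibitor were added to washed integrase–substrate DNA complexes on SPA beads. Enzyme bound 90 min at 37° C; EDTA (10 mM final) terminated reaction; IC50 graded A/B/C.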
For the molecule `Cc1ncnn1-c1cc(F)ccc1CNC(=O)c1nc2n(c(=O)c1O)CC1CCC2(NC(=O)C(=O)N(C)C)CC1` [Example 108, N′-(2-((4-Fluoro-2-(5-methyl-1H-1,2,4-triazol-1-yl)benzyl)carbamoyl)-3-hydroxy-4-oxo-6,7,8,9-tetrahydro-7,10-ethanopyrimido[1,2-a]azepin-10(4H)-yl)-N,N-dimethylethanediamide], the IC50 is 10 to 100 nM. With `CN(C)C(=O)C(=O)NC12CCC(CC1)Cn1c2nc(C(=O)NCc2ccc(F)cc2-c2nncn2C)c(O)c1=O` [Example 109, N′-(2-((4-Fluoro-2-(4-methyl-4H-1,2,4-triazol-3-yl)benzyl)carbamoyl)-3-hydroxy-4-oxo-6,7,8,9-tetrahydro-7,10-ethanopyrimido[1,2-a]azepin-10(4H)-yl)-N,N-dimethylethanediamide], the IC50 lay in the range of 10 to 100 nM. Then `CN(C)C(=O)C(=O)NC12CCC(CC1)Cn1c2nc(C(=O)NCc2ccc(F)c(F)c2)c(O)c1=O` [Example 111, N′-(2-((3,4-Difluorobenzyl)carbamoyl)-3-hydroxy-4-oxo-6,7,8,9-tetrahydro-7,10-ethanopyrimido[1,2-a]azepin-10(4H)-yl)-N,N-dimethylethanediamide], with less than 10 nM. In the case of `CN(C)C(=O)C(=O)NC12CCC(CC1)Cn1c2nc(C(=O)NCc2ccc(F)c(Cl)c2)c(O)c1=O` [Example 112, N′-(2-((3-Chloro-4-fluorobenzyl)carbamoyl)-3-hydroxy-4-oxo-6,7,8,9-tetrahydro-7,10-ethanopyrimido[1,2-a]azepin-10(4H)-yl)-N,N-dimethylethanediamide], the IC50 is less than 10 nM. Then `Cc1cc(CNC(=O)c2nc3n(c(=O)c2O)CC2CCC3(NC(=O)C(=O)N(C)C)CC2)ccc1F` [Example 113, N′-(2-((4-Fluoro-3-methylbenzyl)carbamoyl)-3-hydroxy-4-oxo-6,7,8,9-tetrahydro-7,10-ethanopyrimido[1,2-a]azepin-10(4H)-yl)-N,N-dimethylethanediamide], with less than 10 nM. On to `CN(C)C(=O)C(=O)NC12CCC(CC1)Cn1c2nc(C(=O)NCc2ccc(F)cc2F)c(O)c1=O` [Example 114, N′-(2-((2,4-Difluorobenzyl)carbamoyl)-3-hydroxy-4-oxo-6,7,8,9-tetrahydro-7,10-ethanopyrimido[1,2-a]azepin-10(4H)-yl)-N,N-dimethylethanediamide], for which the IC50 is less than 10 nM.

As to `CN(C)C(=O)C(=O)NC12CCC(CC1)Cn1c2nc(C(=O)NCc2ccc(F)c(Br)c2)c(O)c1=O` [Example 115, N′-(2-((3-Bromo-4-fluorobenzyl)carbamoyl)-3-hydroxy-4-oxo-6,7,8,9-tetrahydro-7,10-ethanopyrimido[1,2-a]azepin-10(4H)-yl)-N,N-dimethylethanediamide], the IC50 was less than 10 nM. As to `COc1cc(F)ccc1CNC(=O)c1nc2n(c(=O)c1O)CC1CCC2(NC(=O)C(=O)N(C)C)CC1` [Example 116, N′-(2-((4-Fluoro-2-methoxybenzyl)carbamoyl)-3-hydroxy-4-oxo-6,7,8,9-tetrahydro-7,10-ethanopyrimido[1,2-a]azepin-10(4H)-yl)-N,N-dimethylethanediamide], the IC50 is less than 10 nM.

Consider `CN(C)C(=O)C(=O)NC12CCC(CC1)Cn1c2nc(C(=O)NCc2ccc(F)cc2S(C)(=O)=O)c(O)c1=O` [Example 117, N′-(2-((4-Fluoro-2-(methylsulfonyl)benzyl)carbamoyl)-3-hydroxy-4-oxo-6,7,8,9-tetrahydro-7,10-ethanopyrimido[1,2-a]azepin-10(4H)-yl)-N,N-dimethylethanediamide], for which the IC50 fell in the range of 10 to 100 nM.

For the molecule `CN(C)C(=O)C(=O)NC12CCC(CC1)Cn1c2nc(C(=O)NCc2ccc(F)cc2Cl)c(O)c1=O` [Example 118, N′-(2-((2-Chloro-4-fluorobenzyl)carbamoyl)-3-hydroxy-4-oxo-6,7,8,9-tetrahydro-7,10-ethanopyrimido[1,2-a]azepin-10(4H)-yl)-N,N-dimethylethanediamide], the IC50 was less than 10 nM. Then `CN(C)C(=O)C(=O)NC12CCC(CC1)Cn1c2nc(C(=O)NCc2ccc(F)c(C(F)(F)F)c2)c(O)c1=O` [Example 119, N′-(2-((4-Fluoro-3-(trifluoromethyl)benzyl)carbamoyl)-3-hydroxy-4-oxo-6,7,8,9-tetrahydro-7,10-ethanopyrimido[1,2-a]azepin-10(4H)-yl)-N,N-dimethylethanediamide], with less than 10 nM; and `Cc1cc(F)ccc1CNC(=O)c1nc2n(c(=O)c1O)CC1CCC2(NC(=O)C(=O)N(C)C)CC1` [Example 120, N′-(2-((4-Fluoro-2-methylbenzyl)carbamoyl)-3-hydroxy-4-oxo-6,7,8,9-tetrahydro-7,10-ethanopyrimido[1,2-a]azepin-10(4H)-yl)-N,N-dimethylethanediamide], with less than 10 nM; and `CN(C)C(=O)C(=O)NC12CCC(CC1)Cn1c2nc(C(=O)NCc2ccc(F)cc2C(F)(F)F)c(O)c1=O` [Example 121, N′-(2-((4-Fluoro-2-(trifluoromethyl)benzyl)carbamoyl)-3-hydroxy-4-oxo-6,7,8,9-tetrahydro-7,10-ethanopyrimido[1,2-a]azepin-10(4H)-yl)-N,N-dimethylethanediamide], with less than 10 nM. Then `CN(C)C(=O)C(=O)NC12CCC(CC1)Cn1c2nc(C(=O)NCc2ccc(F)cc2CO)c(O)c1=O` [Example 122, N′-(2-((4-Fluoro-2-(hydroxymethyl)benzyl)carbamoyl)-3-hydroxy-4-oxo-6,7,8,9-tetrahydro-7,10-ethanopyrimido[1,2-a]azepin-10(4H)-yl)-N,N-dimethylethanediamide], with less than 10 nM; and `CN(C)C(=O)C(=O)NC12CCC(CC1)Cn1c2nc(C(=O)NCc2ncc(F)cc2F)c(O)c1=O` [Example 123, N′-(2-(((3,5-Difluoro-2-pyridinyl)methyl)carbamoyl)-3-hydroxy-4-oxo-6,7,8,9-tetrahydro-7,10-ethanopyrimido[1,2-a]azepin-10(4H)-yl)-N,N-dimethylethanediamide], with 10 to 100 nM; and `CN(C)C(=O)C(=O)NC12CCC(CC1)Cn1c2nc(C(=O)NCc2ccc(F)c(C(F)F)c2)c(O)c1=O` [Example 124, N′-(2-((3-(Difluoromethyl)-4-fluorobenzyl)carbamoyl)-3-hydroxy-4-oxo-6,7,8,9-tetrahydro-7,10-ethanopyrimido[1,2-a]azepin-10(4H)-yl)-N,N-dimethylethanediamide], with less than 10 nM. Then `CN(C)C(=O)C(=O)NC12CCC(CC1)Cn1c2nc(C(=O)NCc2cccc(-n3cncn3)c2)c(O)c1=O` [Example 125, N′-(3-Hydroxy-4-oxo-2-((3-(1H-1,2,4-triazol-1-yl)benzyl)carbamoyl)-6,7,8,9-tetrahydro-7,10-ethanopyrimido[1,2-a]azepin-10(4H)-yl)-N,N-dimethylethanediamide], with less than 10 nM; and `CN(C)C(=O)C(=O)NC12CCC(CC1)Cn1c2nc(C(=O)NCc2cccc(-n3cccc3)c2)c(O)c1=O` [Example 126, N′-(3-Hydroxy-4-oxo-2-((3-(1H-pyrrol-1-yl)benzyl)carbamoyl)-6,7,8,9-tetrahydro-7,10-ethanopyrimido[1,2-a]azepin-10(4H)-yl)-N,N-dimethylethanediamide], with less than 10 nM. Consider `CN1CCN(c2cccc(CNC(=O)c3nc4n(c(=O)c3O)CC3CCC4(NC(=O)C(=O)N(C)C)CC3)c2)CC1` [Example 127, N′-(3-Hydroxy-2-((3-(4-methyl-1-piperazinyl)benzyl)carbamoyl)-4-oxo-6,7,8,9-tetrahydro-7,10-ethanopyrimido[1,2-a]azepin-10(4H)-yl)-N,N-dimethylethanediamide], for which the IC50 is 10 to 100 nM. Then `CN(C)C(=O)C(=O)NC12CCC(CC1)Cn1c2nc(C(=O)NCc2ccc(F)c(C3CC3)c2)c(O)c1=O` [Example 128, N′-(2-((3-Cyclopropyl-4-fluorobenzyl)carbamoyl)-3-hydroxy-4-oxo-6,7,8,9-tetrahydro-7,10-ethanopyrimido[1,2-a]azepin-10(4H)-yl)-N,N-dimethylethanediamide], with less than 10 nM. Then `CN(C)C(=O)C(=O)NC12CCC(CC1)Cn1c2nc(C(=O)NCc2ccccc2)c(O)c1=O` [Example 129, N′-(2-(Benzylcarbamoyl)-3-hydroxy-4-oxo-6,7,8,9-tetrahydro-7,10-ethanopyrimido[1,2-a]azepin-10(4H)-yl)-N,N-dimethylethanediamide], with less than 10 nM. For `CN(C)C(=O)C(=O)NC12CCC(CC1)Cn1c2nc(C(=O)NCCCc2ccc(F)cc2)c(O)c1=O` [Example 130, N′-(2-((3-(4-Fluorophenyl)propyl)carbamoyl)-3-hydroxy-4-oxo-6,7,8,9-tetrahydro-7,10-ethanopyrimido[1,2-a]azepin-10(4H)-yl)-N,N-dimethylethanediamide], the IC50 was less than 10 nM. With `CN(C)C(=O)C(=O)NC12CCC(CC1)Cn1c2nc(C(=O)NCCCc2ccc(Cl)c(Cl)c2)c(O)c1=O` [Example 131, N′-(2-((3-(3,4-Dichlorophenyl)propyl)carbamoyl)-3-hydroxy-4-oxo-6,7,8,9-tetrahydro-7,10-ethanopyrimido[1,2-a]azepin-10(4H)-yl)-N,N-dimethylethanediamide], the IC50 fell in the range of 10 to 100 nM. Then `CN(C)C(=O)C(=O)NC12CCC(CC1)Cn1c2nc(C(=O)NCc2ccc(F)c(C#N)c2)c(O)c1=O` [Example 132, N′-(2-((3-Cyano-4-fluorobenzyl)carbamoyl)-3-hydroxy-4-oxo-6,7,8,9-tetrahydro-7,10-ethanopyrimido[1,2-a]azepin-10(4H)-yl)-N,N-dimethylethanediamide], with less than 10 nM. Regarding `COc1cc(CNC(=O)c2nc3n(c(=O)c2O)CC2CCC3(NC(=O)C(=O)N(C)C)CC2)ccc1F` [Example 133, N′-(2-((4-Fluoro-3-methoxybenzyl)carbamoyl)-3-hydroxy-4-oxo-6,7,8,9-tetrahydro-7,10-ethanopyrimido[1,2-a]azepin-10(4H)-yl)-N,N-dimethylethanediamide], the IC50 was less than 10 nM.

The values above are taken from patent US8129398B2 (priority 2008, dated 2012).
